Columns and labels:
[1] = tested on: UGN; experiment: ELISA detection of serum UGN in rats; format: in vivo; settings: P<0.05
Experimental: Serum preparation: mice were placed at room temperature for 2 hours or 4° C. overnight after eye vein blood collection, and centrifuged at 1000× g for 15 minutes at 2-8° C.; the supernatant can be taken for immediate detection; or subpackaged, and the specimens were stored at −20° C. or −80° C., but repeated freezing and thawing should be avoided. Thawed samples should be centrifuged again prior to detecting.
The serum sample diluent was diluted 1:200 times and then tested. The specific operation was as follows: 5 μl of the sample was added to 45 μl of the sample diluent (1:10 dilution) and mixed. Then 15 μl of the above diluent was added to the 285 μl sample diluent (1:20 dilution) and mixed. The sample obtained after the completion of the second step was 1:200 times dilution. The sample incubation, primary antibody, horseradish peroxidase labeled avidin working solution, color development, termination and enzyme labeling detection were carried out in turn.

[2] = tested on: Guca2b; experiment: Ileum transcriptome sequencing and qPCR gene expression in mice; format: in vivo; settings: P<0.01
Experimental: In order to find the target genes that D3 may act on, the inventors performed ileal transcriptome analysis. Three samples from each group of mice were selected as targets for transcriptome sequencing. Ileal RNA was extracted using the Trizol method and an Agilent 2100 analyser was required to detect the RNA quality above 7 for RNA library construction. After passing the sample test, 2 μg of total RNA was taken from each sample to construct a transcriptome sequencing library. After data acquisition, the RNA-seq data was first de-redundantly removed using Trim galore v0.4.4 to remove junctions and low quality sequences. Using GRCm38 as the mice reference genome, HISAT2 v2.0.5 and StringTie v1.3.4 were used to quantify the abundance of each gene. Differential expression analysis was performed using DESeq2 v1.24.0.
(§1) qPCR gene expression was carried out using the StepOnePlus real-time fluorescent quantitative PCR system. Three technical replicates were performed for each sample, and the identity and purity of the amplified product were checked by analyzing the melting curve at the end of the amplification. Gene expression results were referenced to the percent expression of each gene normalized to glyceraldehyde-3-phosphate dehydrogenase (GAPDH).

[3] = tested on: UGN; experiment: Mice ileum immunofluorescence; format: in vivo
Experimental: After the ileum was taken out, it was embedded with OCT and sliced by freezing microtome. Immunofluorescence brief steps: after the sections were washed with PBS for 3 times, 4% paraformaldehyde was added, fixed at room temperature for 10 min, and then washed with PBS for 3 times; 0.5% Triton X-100 was added, permeation at room temperature for 5 min, then washed with PBS 3 times; cell blocking solution was added and blocked at room temperature for 30 min; primary anti-UGN specific antibody (1:200) was added, 4° C. overnight and washed 3 times with PBST; the secondary antibody (1:500) was added, reacted at room temperature for 2 h, washed twice with PBST and washed once with PBS. The cells were stained with […] for additional 10 minutes at 37° C. Cleaned and sealed. Microscopic observation was recorded.

[4] = tested on: A. muciniphila; experiment: qPCR of abundance of A. muciniphila in intestine of rats; format: in vivo, Sprague Dawley (SD) rats; settings: figure d of FIG. 7 (rats), p<0.05
Description: FIGS. 7A-7H are a graph showing the effect of using D3 on rats and rhesus monkeys in Example 2 of the present invention. FIG. 7A is the schematic diagram of sampling time point in rats; FIG. 7B is the graph showing the results of the growth rate of body weight with different feeding treatments of the rat; FIG. 7C is the graph showing the results of the short-term feed intake measurement of the rat; FIG. 7D is the graph showing the results of the qPCR detection of the abundance of A. muciniphila in intestine of rats with different feeding treatment; FIG. 7E is a schematic diagram of the sampling time point in rhesus monkeys; FIG. 7F is the graph showing the results of the growth rate of body weight with different feeding treatments of rhesus monkeys; FIG. 7G is the feed intake monitoring graphs of rhesus monkeys with different feeding treatments; FIG. 7H is the graph showing the results of the qPCR detection of the abundance of A. muciniphila in intestine of rhesus monkeys with different feeding treatment. The data shown in the figure are mean±standard deviation, the number of repetitions is 5-10, and the significant difference of each group is analyzed by Wilcoxon test. * representing a significance analysis result of P<0.05, ** representing a significance analysis result of P<0.01.
(§2) Body weights were monitored weekly. […]

[5] = tested on: Guca2b; experiment: qPCR of Guca2b mRNA in the ileum of rats; format: in vivo
Experimental: as §1

[6] = Rat feeding experiment (high-fat diet); format: in vivo, Sprague Dawley (SD) rats; settings: SD rats, 10 weeks
Experimental: Sprague Dawley (SD) rats were used in the rat experiment. At the beginning of the experiment, the rats were 4 weeks old, and each weighed 137±5 g. They were raised in a room with suitable temperature and humidity control, and the light/dark cycle was 12 hours, free diet and drinking water, and fed with standard laboratory feed (a growth and reproduction feed, SPFSLFZ003). After one week of adaptation, they were randomly assigned to a cage. HD treatment was represented by D3, a total of 3 treatments were set up, and each treatment was subjected to different feeding treatments, specifically as follows (see figure a of FIG. 7):
NC group (i.e. normal diet group): 8 rats were fed with standard laboratory feed (also known as growth and reproduction feed, SPFSLFZ003), free diet and drinking water for 10 weeks.
HFD group (i.e. high-fat diet group): 8 rats were fed with high-fat diet, the high-fat diet used was rodent feed (containing 60 kcal % fat, D12492), free diet and drinking water for 10 weeks.
D3 group (i.e. high-fat diet+D3 medicine intragastric administration group): 10 rats were fed with high-fat diet, free diet and drinking water. Intragastrically administrated with HD (choose D3), 0.5 mg-2 mg/Kg body weight, 0.5 ml, once/day for 10 weeks.
as §2

[7] = tested on: UGN; experiment: ELISA detection of serum UGN in macaques; format: in vivo; settings: macaque, not significant (p=0.06)
[8] = tested on: A. muciniphila; experiment: qPCR of relative abundance of A. muciniphila in intestinal flora of SPF mice; format: in vivo; settings: p<0.05
Experimental: In order to verify the changes in the relative abundance of A.muciniphila in the intestinal flora of mice fed with other HD, qPCR experiments were performed on the changes of intestinal flora in mice. Faecal bacterial DNA was extracted from the faeces of mice in the NC, HFD, D1, D2, D3, D5, D7, D8, D9 and D10 groups collected in the pre-SPF mice experiments and then the relative abundance of A. muciniphila was determined using qPCR.

RTRYCRTGR [D3]
level of Guca2b in rat serum [1]: significantly increased
expression of UGN (Guca2b) in the ileum ([2]; GF mice): significantly up-regulated
expression of UGN (Guca2b) in the ileum ([2]; SPF mice): significantly up-regulated
fluorescence intensity of UGN in ileal cells [3]: significantly increased
relative abundance of A. muciniphila in the intestine by qPCR [4]: significantly increased
mRNA level of UGN in the ileum [5]: increased significantly
decrease of growth rate of body weight ([6]; vs HFD group): 8.96±3.11%
body weight compared with the HFD group ([6]; intragastric 0.5 mg-2 mg/Kg once/day): significantly lower than that of the HFD group
UGN levels in the serum [7]: Increased
relative abundance of A. muciniphila in the intestinal flora by qPCR [8]: significantly increased
